# From patent publication US8304529B2, “Dinucleotide MRNA cap analogs” (Life Technologies Corporation, priority 2006, dated 2012)
# Columns and labels:
# HeLa cells = test: Luciferase protein expression after transfection of capped luciferase RNA into HeLa cells; format: cell-based; conditions: for protein expression compared with mCAP: capped luciferase RNAs with poly(A) tail, different time points after transfection, higher than mCAP
# Protocol: Structures were confirmed by ^1H NMR and ^31P NMR. Transcripts produced with T7 RNA polymerases using “anti-reverse” cap analogs (ARCAs) were of the predicted length and indistinguishable in size and homogeneity from those produced with m^7GpppG. Transfection assays were performed by using standard cap analog-capped and ARCA-capped luciferase in in vitro transcribed RNA with HeLa cells.
# [1] = test system: phage RNA polymerase such as T7, T3 or SP6; conditions: cited from earlier work
Compound,protein expression compared with mCAP (HeLa cells),attachment of cap to RNA in the reverse orientation ([1]; NTPs and cap RNA present in comparable concentrations),"capped RNA in transcription product ([1]; m7GpppG to GTP 4:1, mMESSAGE mMACHINE kit, rest 20% uncapped) [%]","translation of capped transcripts in transfected cells (HeLa cells; compared with mCAP, double methylated and ARCA capped luciferase RNAs)"
"CO[C@H]1[C@@H](O)[C@H](n2c[n+](C)c3c(=O)[nH]c(N)nc32)O[C@@H]1COP(=O)(O)OP(=O)(O)OP(=O)(O)OC[C@H]1O[C@@H](n2cnc3c(=O)[nH]c(N)nc32)[C@H](O)[C@@H]1O [ARCA, m2^7,3′OG[5′]ppp[5′]G]",3 fold,–,–,–
"C[n+]1cn([C@@H]2O[C@H](COP(=O)(O)OP(=O)(O)OP(=O)(O)OC[C@H]3O[C@@H](n4c[n+](C)c5c(=O)[nH]c(N)nc54)[C@H](O)[C@@H]3O)[C@@H](O)[C@H]2O)c2nc(N)[nH]c(=O)c21 [double methylated cap, m^7 (5′)Gppp(5′)m^7G]",one fold higher,–,–,–
"Cn1c[n+]([C@@H]2O[C@H](COP(=O)(O)OP(=O)(O)OP(=O)(O)OC[C@H]3O[C@@H](n4cnc5c(=O)[nH]c(N)nc54)[C@H](O)[C@@H]3O)[C@@H](O)[C@H]2O)c2nc(N)[nH]c(=O)c21 [mCAP, m^7G(5′)ppp(5′)G]",–,around 50%,80,–
"COC1C(COP(=O)([O-])OP(=O)(O)OP(=O)([O-])OCC2OC(n3c[n+](C)c4c(=O)[nH]c(N)nc43)C(O)C2O)OC(n2c[n+](C)c3c(=O)[nH]c(N)nc32)C1O (stereo not drawn) [triple methylated cap, m2^7,3′OG[5′]ppp[5′]m^7G]",4 fold,–,–,more highly translated
